Residues, ends and D or L forms follow the SMILES beside them. *: point of attachment. Palmitoyl = CCCCCCCCCCCCCCCC(=O)*
Key:
Type in all cases: cell-based
Collagen I (PIP) = assay: ELISA assay of collagen I synthesis (PIP assay) in normal human fibroblast culture supernatants; conditions: NHF, 72 h contact, vs excipient control, weighted by Hoechst viability
Method: (§1) Normal human fibroblasts (NHF) in culture are brought into contact with the products to be tested or their excipient (negative control) for 72 h. At the end of the contact, the culture supernatants are removed, and the syntheses of the dermal macromolecules are estimated by ELISA assays. An estimate of cell viability is carried out by Hoechst assay to weight the obtained data.
Collagen I is evaluated via the PIP assay (carboxy-terminal propeptide of procollagen type I) which is a peptide fragment resulting from the enzymatic degradation of procollagen when the latter is excreted outside the fibroblast (therefore in the culture medium where the assay is carried out).

Fibrillin 1 = assay: Immunofluorescence assay of Fibrillin 1 formation by normal human fibroblasts; conditions: NHF, five-day incubation, coverage density by image analysis
Method: Normal human fibroblasts (NHF) are cultured for at least 24 hours in fibroblast growth medium containing serum. Once confluence was reached, the cells are seeded, and the actives and corresponding controls diluted in a culture medium are added. At the end of a five-day incubation period, the supernatant is removed, the cells are washed with PBS and fixed. The cells are then incubated with the primary Fibrillin 1 monoclonal antibody (11C1.3) (Thermo Fisher) diluted in blocking buffer at a concentration of 1:200. The cells are incubated. The primary antibody is removed, and the cells are washed with PBS. The secondary antibody was added at a dilution of 1:1000 in blocking buffer, then removed and the cells are washed with PBS. The formation of Fibrillin 1 by the cells is visualized using a fluorescence microscope. The obtained images are analyzed using an image processing software assigning a numerical value to the coverage density.

Collagen IV = assay: ELISA assay of collagen IV synthesis in normal human fibroblast culture supernatants; conditions: NHF, 72 h contact, vs excipient control
Method: as §1

Fibronectine = assay: ELISA assay of fibronectin synthesis in normal human fibroblast culture supernatants; conditions: NHF, 72 h contact, vs excipient control
Method: as §1

Decorine = assay: ELISA assay of decorin synthesis in normal human fibroblast culture supernatants; conditions: NHF, 72 h contact, vs excipient control
Method: as §1

Compound | Collagen I (PIP) (Collagen I (PIP); concentrations of 5 to 15 ppm) | Fibrillin 1 (significance) (Fibrillin 1; 12.5 ppm) | Collagen IV (Collagen IV; concentrations of 5 to 15 ppm) | Fibronectine (Fibronectine; concentrations of 5 to 15 ppm) | Decorine (Decorine; concentrations of 5 to 15 ppm) | Collagen I (PIP) (Collagen I (PIP); concentrations of 2 to 3 ppm) | Fibrillin 1 (significance) (Fibrillin 1; 2 ppm) | Collagen IV (Collagen IV; concentrations of 2 to 3 ppm) | Fibronectine (Fibronectine; concentrations of 2 to 3 ppm) | Decorine (Decorine; concentrations of 2 to 3 ppm)
CCCCCCCCCCCCCCCC(=O)N[C@@H](C)C(=O)N[C@H](C(=O)N1CCC[C@H]1C(=O)NCC(=O)O)C(C)C [Pal-AVPG-OH, palmitoyl-alanyl-valyl-prolyl-glycine] (Palmitoyl-AVPG-OH) | +94% | +121% (p < 0.05) | +35% | +38% | +20% |  |  |  |  | 
Pal-VPGA-OH: N-palmitoyl tetrapeptide Val-Pro-Gly-Ala with free C-terminal acid, prepared by the same synthetic process (Palmitoyl-VPGA-OH; SMILES CCCCCCCCCCCCCCCC(=O)N[C@H](C(=O)N1CCC[C@H]1C(=O)NCC(=O)N[C@@H](C)C(=O)O)C(C)C) |  |  |  |  |  | +42% | +92% (p < 0.05) | +49% | +115% | +69%

— patent US20230399359A1, “TETRAPEPTIDES, COMPOSITIONS COMPRISING THEM, AND THEIR COSMETIC USE” (Sederma, priority 2020, published 2023)
